Legend:
SSTR2 = SSTR2 expression by IHC after Vorinostat treatment; format: in vivo, mice bearing NCI-H69 tumors
Method: Mice bearing NCI-H69 tumors (small cell lung cancer) were treated with Vorinostat for 10 days IP (q.d.×5). Tumors were collected and processed for SSTR2 expression by IHC.
On Day 6 the IRS score doubled from 6 in the vehicle to 12 in the treated group. The immunoreactive score (IRS) is determined by multiplying the staining intensity in four gradations with the percentage of positive cells in five gradations.

NCI-H69 cells = test: Conjugate 1 potency in vitro with and without Vorinostat pre-treatment; format: cell-based
Method: In a further study, whether increased SSTR2 expression would result in better delivery of Conjugate 1 to small cell lung cancer cells (NCI-H69) was evaluated. Conjugate 1 potency with Vorinostat pre-treatment was compared with Conjugate 1 potency without Vorinostat pre-treatment. […].

[1] = tested on: xenograft models that over-express SSTR2; test: Preclinical single agent studies in xenograft models that over-express SSTR2; format: in vivo; settings: single agent Conjugate 1 treatment
Excerpt: The targeting peptide of Conjugate 1 selectively binds to SSTR2, triggers receptor internalization leading to the accumulation of the DM1 to provide antitumor activity by disrupting microtubule networks causing apoptosis and mitotic catastrophe.

[2] = tested on: NCI-H727 (lung carcinoid) xenograft; test: Conjugate 1 and Vorinostat combination in NCI-H727 xenograft model; format: in vivo, mice; settings: very low SSTR2 (IRS 1)
[3] = tested on: NCI-H69 tumors (small cell lung cancer); test: Low doses of Conjugate 1 with Vorinostat, same-day start or pre-treatment, in NCI-H69 model; format: in vivo; settings: mice
Method: In a further study with NCI-H69 model (small cell lung cancer), low doses of Conjugate 1 were given to tumor bearing mice and tumor regression was tracked. 1/3 MTD of Conjugate 1 is 0.7 mpk. 1/6 MTD of Conjugate 1 is 0.35 mpk.
Mice bearing NCI-H69 tumors were treated with a combination of Vorinostat and Conjugate 1 starting on the same day or pre-treated with Vorinostat for 4 days IP then administered low doses of Conjugate 1. In total, mice received 10 total doses of Vorinostat (q.d×5) and 2 doses of Conjugate 1 (q.w.×2).
. No significant body weight loss was observed during these studies. […]

[4] = Conjugate 1 tumor uptake with Vorinostat pre-treatment; format: in vivo, mice bearing NCI-H69 tumors; settings: Vorinostat pre-treatment vs none; P=0.03
Method: In vivo, mice bearing NCI-H69 tumors were pre-treated with Vorinostat then administered Conjugate 1. Tumors were analyzed for Conjugate 1 concentrations.

Structure (SMILES) | IRS score (SSTR2 expression in tumors) (SSTR2; NCI-H69 tumors, Day 6, Vorinostat IP q.d.x5, vehicle 6) | SSTR2 expression in normal spleen tissues (SSTR2; normal spleen after Vorinostat treatment) | NCI-H69 cell proliferation (NCI-H69 cells; Vorinostat alone) | tumor regression [1] | Conjugate 1 potency (NCI-H69 cells; with Vorinostat pre-treatment vs without, NCI-H69 cells in vitro) | activity as a single agent [2] | 1/3 MTD [3] [mpk] | 1/6 MTD [3] [mpk] | Conjugate 1 concentrations in tumors [4]
O=C(CCCCCCC(=O)Nc1ccccc1)NO [Vorinostat, vorinostat] | 12 | an increase in expression was not observed | no effect |  |  |  |  |  | 
COc1cc2cc(c1Cl)N(C)C(=O)C[C@H](OC(=O)[C@H](C)N(C)C(=O)CCSSC[C@H](NC(=O)[C@@H]1CSSC[C@H](NC(=O)[C@H](N)Cc3ccccc3)C(=O)N[C@@H](Cc3ccc(O)cc3)C(=O)N[C@H](Cc3c[nH]c4ccccc34)C(=O)N[C@@H](CCCCN)C(=O)N[C@@H]([C@@H](C)O)C(=O)N1)C(N)=O)C[C@]1(C)O[C@H]1[C@H](C)[C@@H]1C[C@@](O)(NC(=O)O1)[C@H](OC)C/C=C/C=C(\C)C2 [Conjugate 1] |  |  |  | complete and sustained tumor regression | an increase in Conjugate 1 potency was observed | no activity | 0.7 | 0.35 | statistically significant (P=0.03) increase
